Laboratory results taken from ChEMBL document CHEMBL4619718, “Discovery of cyclic guanidine-linked sulfonamides as inhibitors of LMTK3 kinase” (Bioorg Med Chem Lett, 2020).
Activity calls are given as the source filed them. The calls are words filed in the database; no cut-off is given here.

Experiments:
[1] = target: BDNF/NT-3 growth factors receptor (Homo sapiens) (UniProt Q16620); settings: 1.52 nM
Description: Inhibition of TRKB (unknown origin) at 1.52 nM relative to control

[2] = target: T1, Muscle, skeletal receptor tyrosine-protein kinase (Homo sapiens) (UniProt O15146); assay: Inhibition of MUSK (unknown origin) at 100 nM relative to control
T1 sequence (whole entry): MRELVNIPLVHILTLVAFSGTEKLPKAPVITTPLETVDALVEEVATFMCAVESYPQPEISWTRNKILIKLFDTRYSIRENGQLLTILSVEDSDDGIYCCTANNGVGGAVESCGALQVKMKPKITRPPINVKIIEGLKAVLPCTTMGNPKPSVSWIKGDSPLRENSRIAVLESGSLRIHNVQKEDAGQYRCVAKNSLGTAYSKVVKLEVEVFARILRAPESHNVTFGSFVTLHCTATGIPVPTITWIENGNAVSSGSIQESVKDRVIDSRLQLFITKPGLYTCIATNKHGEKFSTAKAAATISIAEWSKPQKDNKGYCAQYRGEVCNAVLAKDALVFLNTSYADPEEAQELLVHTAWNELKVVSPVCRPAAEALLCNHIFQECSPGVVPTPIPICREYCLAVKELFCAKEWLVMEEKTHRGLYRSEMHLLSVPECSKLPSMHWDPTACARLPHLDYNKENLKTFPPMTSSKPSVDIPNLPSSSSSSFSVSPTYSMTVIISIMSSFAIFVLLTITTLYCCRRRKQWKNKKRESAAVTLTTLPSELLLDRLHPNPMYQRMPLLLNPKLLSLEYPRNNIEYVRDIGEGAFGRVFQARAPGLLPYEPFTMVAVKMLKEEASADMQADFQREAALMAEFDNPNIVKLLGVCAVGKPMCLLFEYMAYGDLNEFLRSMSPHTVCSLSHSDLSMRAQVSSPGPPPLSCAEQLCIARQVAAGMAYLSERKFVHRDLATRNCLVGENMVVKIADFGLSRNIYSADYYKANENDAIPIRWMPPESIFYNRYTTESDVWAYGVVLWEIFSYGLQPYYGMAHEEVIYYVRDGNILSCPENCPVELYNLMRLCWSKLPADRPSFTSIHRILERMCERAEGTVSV

[3] = target: T2, Serine/threonine-protein kinase LMTK3 (Homo sapiens, UniProt Q96Q04); assay: Inhibition of LMTK3 (unknown origin)
T2 sequence (Q96Q04 whole entry): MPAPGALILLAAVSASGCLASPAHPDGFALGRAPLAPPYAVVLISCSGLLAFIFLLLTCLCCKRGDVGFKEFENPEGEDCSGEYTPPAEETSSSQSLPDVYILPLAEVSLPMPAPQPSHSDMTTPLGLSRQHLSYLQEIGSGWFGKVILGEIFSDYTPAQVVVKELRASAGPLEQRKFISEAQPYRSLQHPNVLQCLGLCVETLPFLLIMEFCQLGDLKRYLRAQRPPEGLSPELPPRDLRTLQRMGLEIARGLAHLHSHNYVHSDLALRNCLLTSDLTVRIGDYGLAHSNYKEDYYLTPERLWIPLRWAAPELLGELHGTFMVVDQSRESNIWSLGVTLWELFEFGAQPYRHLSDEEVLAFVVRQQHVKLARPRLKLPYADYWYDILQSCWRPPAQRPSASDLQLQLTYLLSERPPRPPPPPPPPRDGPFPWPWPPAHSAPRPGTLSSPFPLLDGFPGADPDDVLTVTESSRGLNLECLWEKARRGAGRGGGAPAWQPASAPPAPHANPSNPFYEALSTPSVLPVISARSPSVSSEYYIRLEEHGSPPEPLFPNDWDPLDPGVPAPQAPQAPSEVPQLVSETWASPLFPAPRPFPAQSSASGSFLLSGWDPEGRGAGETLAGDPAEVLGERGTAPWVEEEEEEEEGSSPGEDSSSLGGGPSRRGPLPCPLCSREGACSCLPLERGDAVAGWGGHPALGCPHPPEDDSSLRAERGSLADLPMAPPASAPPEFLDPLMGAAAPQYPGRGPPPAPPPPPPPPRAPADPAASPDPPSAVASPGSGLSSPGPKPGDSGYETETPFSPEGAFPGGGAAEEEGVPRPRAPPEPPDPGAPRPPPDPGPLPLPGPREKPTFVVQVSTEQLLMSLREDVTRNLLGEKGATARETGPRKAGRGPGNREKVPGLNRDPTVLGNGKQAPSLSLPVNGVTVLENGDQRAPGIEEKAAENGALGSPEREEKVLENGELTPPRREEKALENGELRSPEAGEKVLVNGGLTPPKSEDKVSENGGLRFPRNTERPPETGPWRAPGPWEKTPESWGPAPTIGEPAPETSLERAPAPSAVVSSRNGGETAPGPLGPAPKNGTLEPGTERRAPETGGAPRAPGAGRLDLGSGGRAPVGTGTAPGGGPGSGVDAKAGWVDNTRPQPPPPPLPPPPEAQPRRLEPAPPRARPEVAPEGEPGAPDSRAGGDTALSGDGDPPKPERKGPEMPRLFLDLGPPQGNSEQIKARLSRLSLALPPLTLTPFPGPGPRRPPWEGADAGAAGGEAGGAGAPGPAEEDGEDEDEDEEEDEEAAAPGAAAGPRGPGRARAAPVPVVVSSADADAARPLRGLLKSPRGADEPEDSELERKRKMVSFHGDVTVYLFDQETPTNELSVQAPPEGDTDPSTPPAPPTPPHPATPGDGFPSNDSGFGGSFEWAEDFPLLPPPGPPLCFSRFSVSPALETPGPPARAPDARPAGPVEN

MCF7 [4] = assay: Antiproliferative activity against human MCF7 cells at 20 uM incubated for 6 days by MTT assay relative to control; assay type: functional
[5] = target: Insulin receptor (Homo sapiens) (UniProt P06213); assay: Inhibition of INSR (unknown origin) at 10 uM relative to control
[6] = target: BDNF/NT-3 growth factors receptor (Homo sapiens) (UniProt Q16620); assay: Inhibition of TRKB (unknown origin) at 10 uM relative to control
T47D [7] = assay: Antiproliferative activity against human T47D cells at 20 uM incubated for 6 days by MTT assay relative to control; assay type: functional
[8] = target: T1, Muscle, skeletal receptor tyrosine-protein kinase (Homo sapiens); assay: Inhibition of MUSK (unknown origin) at 10 uM relative to control
[9] = target: Insulin-like growth factor 1 receptor (Homo sapiens) (UniProt P08069); assay: Inhibition of IGF1R (unknown origin) at 10 uM relative to control
[10] = target: T3, Serine/threonine-protein kinase LMTK3 (Homo sapiens) (UniProt Q96Q04); assay: Binding affinity to full length LMTK3 (unknown origin) assessed as thermal stabilization of protein at 0.3 to 1 uM at 54 degC incubated for 3 mins followed by 3 min incubated at room temperature by CETSA-based Western blot analysis
T3 sequence (whole entry): T2 sequence (Q96Q04 whole entry)

[11] = target: T3, Serine/threonine-protein kinase LMTK3 (Homo sapiens); assay: Binding affinity to hyper glycosylated LMTK3 (unknown origin) assessed as change in melting temperature at 10 uM by CETSA-based Western blot analysis
[12] = target: T3, Serine/threonine-protein kinase LMTK3 (Homo sapiens); assay: Binding affinity to full length LMTK3 (unknown origin) assessed as change in melting temperature at 10 uM by CETSA-based Western blot analysis
MCF7 [13] = assay: Antiproliferative activity against human MCF7 cells at 5 uM incubated for 6 days by MTT assay relative to control; assay type: functional
T47D [14] = assay: Antiproliferative activity against human T47D cells at 5 uM incubated for 6 days by MTT assay relative to control; assay type: functional
[15] = target: T3, Serine/threonine-protein kinase LMTK3 (Homo sapiens); assay: Binding affinity to full length LMTK3 (unknown origin) assessed as thermal stabilization of protein at 54 degC incubated for 3 mins followed by 3 min incubated at room temperature by CETSA-based Western blot analysis
T47D [16] = assay: Antiproliferative activity against human T47D cells at 10 uM incubated for 6 days by MTT assay relative to control; assay type: functional
MCF7 [17] = assay: Antiproliferative activity against human MCF7 cells at 10 uM incubated for 6 days by MTT assay relative to control; assay type: functional

Insulin-like growth factor 1 receptor (Homo sapiens), sequence (P08069 31-736 limits assumed): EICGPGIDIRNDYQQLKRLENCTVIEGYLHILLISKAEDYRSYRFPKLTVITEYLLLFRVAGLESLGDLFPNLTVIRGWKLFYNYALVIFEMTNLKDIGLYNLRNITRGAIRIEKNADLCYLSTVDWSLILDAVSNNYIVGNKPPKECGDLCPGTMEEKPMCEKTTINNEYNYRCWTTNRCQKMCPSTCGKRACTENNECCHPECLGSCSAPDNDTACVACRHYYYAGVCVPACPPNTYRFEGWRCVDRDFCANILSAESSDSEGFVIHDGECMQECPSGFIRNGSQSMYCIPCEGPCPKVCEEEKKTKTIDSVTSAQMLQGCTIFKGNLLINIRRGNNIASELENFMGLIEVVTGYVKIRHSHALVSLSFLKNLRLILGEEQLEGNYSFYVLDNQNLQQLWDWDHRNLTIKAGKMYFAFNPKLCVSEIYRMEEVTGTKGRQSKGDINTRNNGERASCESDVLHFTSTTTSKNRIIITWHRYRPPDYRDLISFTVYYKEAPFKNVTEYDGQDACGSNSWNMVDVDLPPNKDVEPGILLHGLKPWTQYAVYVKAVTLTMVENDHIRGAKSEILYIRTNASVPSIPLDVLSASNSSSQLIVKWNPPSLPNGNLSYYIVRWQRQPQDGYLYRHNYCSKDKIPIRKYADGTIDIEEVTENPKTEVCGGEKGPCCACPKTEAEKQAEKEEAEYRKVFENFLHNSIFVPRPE
Insulin-like growth factor 1 receptor (Homo sapiens), sequence (P08069 741-1367 limits assumed): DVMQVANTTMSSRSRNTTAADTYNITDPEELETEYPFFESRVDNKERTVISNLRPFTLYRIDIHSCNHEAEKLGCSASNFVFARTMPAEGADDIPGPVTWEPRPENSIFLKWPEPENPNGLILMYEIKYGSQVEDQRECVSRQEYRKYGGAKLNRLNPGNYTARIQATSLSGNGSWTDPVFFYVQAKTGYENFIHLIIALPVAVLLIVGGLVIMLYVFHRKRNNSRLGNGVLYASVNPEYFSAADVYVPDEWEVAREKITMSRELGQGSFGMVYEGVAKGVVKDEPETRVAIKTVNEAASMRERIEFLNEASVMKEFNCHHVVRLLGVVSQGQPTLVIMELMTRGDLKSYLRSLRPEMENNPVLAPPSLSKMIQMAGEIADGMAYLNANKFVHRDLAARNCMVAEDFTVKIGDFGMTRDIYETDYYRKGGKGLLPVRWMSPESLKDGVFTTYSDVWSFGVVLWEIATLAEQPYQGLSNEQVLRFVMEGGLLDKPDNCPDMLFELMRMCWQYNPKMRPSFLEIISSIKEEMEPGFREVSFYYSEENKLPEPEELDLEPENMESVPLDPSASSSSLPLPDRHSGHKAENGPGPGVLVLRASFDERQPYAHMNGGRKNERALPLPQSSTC
Insulin receptor (Homo sapiens), sequence (P06213 28-758 limits assumed): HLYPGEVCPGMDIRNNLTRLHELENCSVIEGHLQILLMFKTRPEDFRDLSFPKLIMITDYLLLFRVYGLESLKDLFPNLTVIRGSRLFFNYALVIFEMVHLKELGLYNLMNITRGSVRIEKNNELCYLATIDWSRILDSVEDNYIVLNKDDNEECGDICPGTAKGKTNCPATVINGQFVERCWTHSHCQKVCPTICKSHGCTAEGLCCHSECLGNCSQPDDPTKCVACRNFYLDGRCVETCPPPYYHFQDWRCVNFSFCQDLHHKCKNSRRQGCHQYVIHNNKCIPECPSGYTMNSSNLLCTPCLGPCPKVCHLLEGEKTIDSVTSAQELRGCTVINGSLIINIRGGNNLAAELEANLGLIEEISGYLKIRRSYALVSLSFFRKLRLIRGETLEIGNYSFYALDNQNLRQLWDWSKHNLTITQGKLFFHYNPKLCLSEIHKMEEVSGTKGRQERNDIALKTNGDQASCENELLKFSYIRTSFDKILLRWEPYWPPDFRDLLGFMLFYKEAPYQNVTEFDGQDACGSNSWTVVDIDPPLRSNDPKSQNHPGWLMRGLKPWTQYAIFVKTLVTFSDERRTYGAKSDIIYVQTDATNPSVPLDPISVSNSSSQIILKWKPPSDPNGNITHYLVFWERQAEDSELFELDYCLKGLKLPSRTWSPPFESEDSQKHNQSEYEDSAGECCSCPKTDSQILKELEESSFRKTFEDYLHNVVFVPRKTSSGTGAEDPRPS
Insulin receptor (Homo sapiens), sequence (P06213 763-1382 limits assumed): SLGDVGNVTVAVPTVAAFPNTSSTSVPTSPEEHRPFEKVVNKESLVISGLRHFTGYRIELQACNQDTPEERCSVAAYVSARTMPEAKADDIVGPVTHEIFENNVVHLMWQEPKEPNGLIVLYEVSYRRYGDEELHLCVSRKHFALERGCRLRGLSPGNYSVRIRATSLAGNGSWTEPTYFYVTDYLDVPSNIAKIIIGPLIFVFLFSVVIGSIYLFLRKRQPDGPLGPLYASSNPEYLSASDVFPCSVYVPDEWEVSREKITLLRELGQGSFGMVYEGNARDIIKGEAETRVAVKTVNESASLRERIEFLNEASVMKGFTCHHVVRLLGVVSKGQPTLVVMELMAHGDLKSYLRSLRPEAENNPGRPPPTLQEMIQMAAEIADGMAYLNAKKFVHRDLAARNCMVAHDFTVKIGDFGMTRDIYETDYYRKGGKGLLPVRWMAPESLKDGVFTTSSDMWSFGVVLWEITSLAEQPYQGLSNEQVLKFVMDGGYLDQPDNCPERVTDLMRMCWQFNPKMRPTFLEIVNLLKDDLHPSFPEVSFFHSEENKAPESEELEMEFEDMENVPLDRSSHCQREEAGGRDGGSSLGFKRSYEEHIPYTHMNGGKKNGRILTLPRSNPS
BDNF/NT-3 growth factors receptor (Homo sapiens), sequence (Q16620 32-822 limits assumed): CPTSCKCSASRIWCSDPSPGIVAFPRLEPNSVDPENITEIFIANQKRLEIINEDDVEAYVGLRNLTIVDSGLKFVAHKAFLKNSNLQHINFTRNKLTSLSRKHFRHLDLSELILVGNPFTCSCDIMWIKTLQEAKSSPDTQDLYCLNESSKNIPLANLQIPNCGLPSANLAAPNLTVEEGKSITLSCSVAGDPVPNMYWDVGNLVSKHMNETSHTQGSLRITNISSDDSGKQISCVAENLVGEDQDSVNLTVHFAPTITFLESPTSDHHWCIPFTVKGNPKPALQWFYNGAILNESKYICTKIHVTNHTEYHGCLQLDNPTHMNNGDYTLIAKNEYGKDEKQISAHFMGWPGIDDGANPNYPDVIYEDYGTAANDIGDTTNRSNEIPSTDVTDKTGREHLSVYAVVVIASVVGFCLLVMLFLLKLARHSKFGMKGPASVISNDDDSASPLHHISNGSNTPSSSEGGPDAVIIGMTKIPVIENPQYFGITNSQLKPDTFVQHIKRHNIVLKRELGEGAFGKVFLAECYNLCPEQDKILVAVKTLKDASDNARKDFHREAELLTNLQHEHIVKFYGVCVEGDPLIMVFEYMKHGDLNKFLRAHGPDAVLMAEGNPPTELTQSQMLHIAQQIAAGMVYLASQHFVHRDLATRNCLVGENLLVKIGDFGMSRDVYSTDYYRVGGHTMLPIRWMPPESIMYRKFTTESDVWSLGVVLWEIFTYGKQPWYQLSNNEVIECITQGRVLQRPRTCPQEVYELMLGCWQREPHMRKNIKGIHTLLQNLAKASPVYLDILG

| Compound | inhibition [1] [%] | inhibition [2] [%] | IC50 [3] [nM] | Activity (MCF7 [4]) [%] | inhibition [5] [%] | inhibition [6] [%] | Activity (T47D [7]) [%] | inhibition [8] [%] | inhibition [9] [%] | Activity [10] | Activity [11] | Activity [12] | Activity (MCF7 [13]) [%] | Activity (T47D [14]) [%] | Activity [15] | Activity (T47D [16]) [%] | Activity (MCF7 [17]) [%] |
| --- | --- | --- | --- | --- | --- | --- | --- | --- | --- | --- | --- | --- | --- | --- | --- | --- | --- |
| C[C@@]1(C(=O)Nc2ccc(F)nc2)CCCN1c1nc(Nc2cc(C3CC3)n[nH]2)c2cccn2n1 [BMS-754807] | > 95 | 75.1 | 3160 |  |  |  |  |  |  |  |  |  |  |  |  |  |  |
| CN1CCN(c2ccc(C(=O)Nc3n[nH]c4ccc(Cc5cc(F)cc(F)c5)cc34)c(NC3CCOCC3)c2)CC1 [ENTRECTINIB] | > 95 | 54.1 | 4650 |  |  |  |  |  |  |  |  |  |  |  |  |  |  |
| Cc1ccc(S(=O)(=O)N[C@@H](Cc2ccc(O)cc2)CN2C(=N)NC[C@@H]2CC2CCCCC2)cc1 |  |  | 318 | 50 | 5.7 | 25.3 | 50 | 79.8 | 16.1 |  |  |  |  |  |  |  |  |
| CC(C)C[C@H]1CNC(=N)N1C[C@H](Cc1ccccc1)NS(=O)(=O)c1ccccc1 |  |  | 654 | 100 | 2.3 | 2 | 100 | 27.3 | 8.3 |  |  |  |  |  |  |  |  |
| N=C1NC[C@H](CC2CCCCC2)N1C[C@H](Cc1ccccc1)NS(=O)(=O)c1ccccc1 |  |  | 1610 |  | 18.4 | 10.6 |  | 103 | 11.4 | Active | Active | Active | 60 | 60 | Active | 100 | 100 |
| CC(C)C[C@H]1CNC(=N)N1C[C@H](Cc1ccc(O)cc1)NS(=O)(=O)c1ccccc1Cl |  |  | 210 |  | 7.3 | 0.1 |  | 19.8 | 15.9 |  |  |  |  |  |  |  |  |
| N=C1NC[C@H](CC2CCCCC2)N1C[C@H](Cc1ccc(O)cc1)NS(=O)(=O)c1ccccc1Cl |  |  | 226 |  | 0.1 | 16 |  | 56.8 | 16.1 |  |  |  |  |  | inactive |  |  |
| Cc1ccc(S(=O)(=O)N[C@@H](Cc2ccc(O)cc2)CN2C(=N)NC[C@@H]2CC(C)C)cc1 |  |  | 308 |  | 3.9 | 0.8 |  | 22.2 | 7.8 |  |  |  |  |  |  |  |  |
